Common to all, as to type: cell-based
The target of one assay is T1, FGFR2 V564I (Homo sapiens, UniProt P21802, V564I).
T1 construct: P41212 (Transcription factor ETV6)
Briefly: Cell proliferation assay for Tel-FGFR2 V564I in BaF3. The conditions noted are these: BaF3 cells expressing FGFR2 V564I fusion, 48 hrs, CellTiter Glo. As for the experimental part: (§1) By transfection, cell strains of the intracellular kinase domain fusion protein of TEL-FGFR2 WT or the intracellular domain fusion proteins containing FGFR2 V564, V564F, V564L, N549K and K659M mutations were stably expressed in Baf cells. On day 1, the cell suspension was plated into a 96-well plate containing growth medium (DMEM containing 1% Glutamax, 10% FBS and 1% Pen/Strep) at 2000-4000 cells/90 μL/per well, and then the mixture was incubated overnight at 37° C. and 5% CO2. On day 2, 10 μL of growth medium containing a 10-fold stock solution of test compound was added to the cell culture (9 dose points, 3× serial dilution, starting from 1 μM, finally 0.3% DMSO). After incubation at 37° C. and 5% CO2 for 48 hrs, 50 μL of CellTiter Glo (CTG) reagent was added to the cell-containing 96-well plate on day 3, and the plate was then incubated at room temperature for 10 min. Then relative light units (RLUs) were measured on a microplate reader with a luminescence detection module. RLU values were normalized to % survival, and concentration-response curves were plotted using Prism to calculate IC50 (nM).

A further assay concerns the target T2, FGFR2 V564F (Homo sapiens, UniProt P21802, V564F).
T2 construct: P41212 (Transcription factor ETV6)
Kind of assay: Cell proliferation assay for Tel-FGFR2 V564F in BaF3. The conditions noted are these: BaF3 cells expressing FGFR2 V564F fusion, 48 hrs, CellTiter Glo. As for the experimental part: as §1

A further assay has as its target T3, FGFR3 V555M (Homo sapiens, UniProt P22607, V555M).
T3 construct: P41212 (Transcription factor ETV6)
Kind of assay: Cell proliferation assay for FGFR3 V555M in BaF3. The conditions noted are these: BaF3 cells expressing FGFR3 V555M fusion, 48 hrs, CellTiter Glo. The protocol:
(§2) For the compounds of the Examples of the present invention, cell strains of TEL-FGFR3 WT intracellular kinase domain fusion protein or intracellular domain fusion protein containing FGFR3 V555M or FGFR3 N540K mutation were stably expressed in Baf cells by transfection and were used to determine the cell proliferation effect of BaF3-Tel-FGFR3 WT. FGFR3 V555M or FGFR3 N540K. The specific test process was as follows: • 1) The cell suspension was plated into a 96-well plate containing growth medium (DMEM containing 1% Glutamax, 10% FBS and 1% Pen/Strep) at 2000-4000 cells/90 μL/per well, and then the mixture was incubated overnight at 37° C. and 5% CO2. • 2) 10 μL of growth medium containing a 10-fold stock solution of test compound was added to the cell culture (9 dose points, 3× serial dilution, starting from 1 μM, finally 0.3% DMSO). • 3) The mixture was incubated at 37° C. and 5% CO2 for 48 hrs. • 4) 50 μL of CellTiter Glo (CTG) reagent was added to the cell-containing 96-well plate, and the plate was then incubated at room temperature for 10 min. • 5) Relative light units (RLUs) were measured on a microplate reader with a luminescence detection module. RLU values were normalized to % survival, and concentration-response curves were plotted using Prism to calculate IC50 (nM).
A general note: Cellular ATP, detected with luciferase, serves as a proxy for viable cell number.

A further assay deals with T4, FGFR2 K659M (Homo sapiens, UniProt P21802, K659M).
T4 construct: P41212 (Transcription factor ETV6)
T4 sequence (P21802 481-770 K659M limits assumed): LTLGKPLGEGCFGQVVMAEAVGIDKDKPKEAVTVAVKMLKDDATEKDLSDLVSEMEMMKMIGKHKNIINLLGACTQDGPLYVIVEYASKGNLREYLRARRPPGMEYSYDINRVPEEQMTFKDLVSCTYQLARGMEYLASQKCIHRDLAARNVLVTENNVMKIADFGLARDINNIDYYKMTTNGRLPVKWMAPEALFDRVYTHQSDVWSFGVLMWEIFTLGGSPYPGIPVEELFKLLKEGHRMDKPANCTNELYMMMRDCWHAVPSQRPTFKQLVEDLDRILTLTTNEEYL
Kind of assay: Cell proliferation assay for Tel-FGFR2 K659M in BaF3. Conditions: BaF3 cells expressing FGFR2 K659M fusion, 48 hrs, CellTiter Glo. The protocol:
as §1

Another assay addresses T5, FGFR2 N549K (Homo sapiens, UniProt P21802, N549K).
T5 construct: P41212 (Transcription factor ETV6)
Kind of assay: Cell proliferation assay for Tel-FGFR2 N549K in BaF3. The conditions noted are these: BaF3 cells expressing FGFR2 N549K fusion, 48 hrs, CellTiter Glo. As for the experimental part:
as §1

A further assay deals with T6, FGFR3 N540K (Homo sapiens, UniProt P22607, N540K).
T6 construct: P41212 (Transcription factor ETV6)
T6 sequence (P22607 472-761 N540K limits assumed): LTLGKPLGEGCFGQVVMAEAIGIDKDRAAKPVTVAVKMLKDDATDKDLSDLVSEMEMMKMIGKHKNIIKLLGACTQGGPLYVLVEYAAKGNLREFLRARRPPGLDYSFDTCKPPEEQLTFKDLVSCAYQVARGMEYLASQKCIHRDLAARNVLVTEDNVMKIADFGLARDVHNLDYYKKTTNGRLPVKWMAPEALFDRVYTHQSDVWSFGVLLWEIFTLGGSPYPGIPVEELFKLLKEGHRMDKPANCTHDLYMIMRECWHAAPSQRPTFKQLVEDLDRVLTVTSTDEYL
Kind of assay: Cell proliferation assay for FGFR3 N540K in BaF3. Conditions: BaF3 cells expressing FGFR3 N540K fusion, 48 hrs, CellTiter Glo. The protocol:
as §2

The target of the next assay is T7, FGFR2 V564L (Homo sapiens, UniProt P21802, V564L).
T7 construct: P41212 (Transcription factor ETV6)
T7 sequence (P21802 481-770 V564L limits assumed): as the sequence (P21802 481-770 K659M limits assumed) above, with V84L, M179K counted along it
Briefly: Cell proliferation assay for Tel-FGFR2 V564L in BaF3. The conditions noted are these: BaF3 cells expressing FGFR2 V564L fusion, 48 hrs, CellTiter Glo. As for the experimental part: as §1

T1 sequence (P21802 481-770 V564I limits assumed): as the sequence (P21802 481-770 K659M limits assumed) above, with V84I, M179K counted along it
T5 sequence (P21802 481-770 N549K limits assumed): as the sequence (P21802 481-770 K659M limits assumed) above, with N69K, M179K counted along it
T2 sequence (P21802 481-770 V564F limits assumed): as the sequence (P21802 481-770 K659M limits assumed) above, with V84F, M179K counted along it
T3 sequence (P22607 472-761 V555M limits assumed): as the sequence (P22607 472-761 N540K limits assumed) above, with K69N, V84M counted along it

`C=CC(=O)N1CC[C@H](n2nc(C#Cc3cc4nc(C5(F)CC5)oc4cc3F)c3c(N)ncnc32)C1` [Example 36]: the IC50 on FGFR2 V564I was no more than 0.5 nM; against FGFR2 V564F, no more than 0.5 nM; against FGFR3 V555M, 0.5 to 5 nM; on FGFR2 K659M it was 0.5 to 5 nM.
For `C=CC(=O)N1CC[C@H](n2nc(C#Cc3c(F)cc4sc(C5CC5)nc4c3F)c3c(N)ncnc32)C1` [Example 62, (S)-1-(3-(4-amino-3-((2-cyclopropyl-4,6-difluoro-benzo[d]thiazol-5-yl)ethynyl)-1H-pyrazolo[3,4-d]pyrimidin-1-yl)pyrrolidin-1-yl) prop-2-en-1-one], the IC50 is no more than 0.5 nM against FGFR2 V564I; 0.5 to 5 nM on FGFR2 N549K; 0.5 to 5 nM against FGFR3 N540K; no more than 0.5 nM against FGFR2 V564F; 0.5 to 5 nM on FGFR3 V555M; 0.5 to 5 nM at FGFR2 V564L. In addition, the IC50 on FGFR2 K659M is 5 to 50 nM.
Turning to `C=CC(=O)N1CC[C@H](n2nc(C#Cc3ccc4oc(C5CC5)nc4c3)c3c(N)ncnc32)C1` [Example 20, (S)-1-(3-(4-amino-3-((2-cyclopropylbenzo[d]oxazol-5-yl)ethynyl)-1H-pyrazolo [3,4-d]pyrimidin-1-yl)pyrrolidin-1-yl)prop-2-en-1-one], the IC50 against FGFR2 V564I was no more than 0.5 nM; at FGFR2 N549K, 0.5 to 5 nM; against FGFR3 N540K it was 0.5 to 5 nM; against FGFR2 V564F, 0.5 to 5 nM; on FGFR3 V555M it was 0.5 to 5 nM; against FGFR2 V564L it was 0.5 to 5 nM. The IC50 against FGFR2 K659M fell in the range of 5 to 50 nM.
Turning to `CN(C)C/C=C/C(=O)N1CC(n2nc(C#Cc3c(F)cc4oc(N5CCC5)nc4c3F)c3c(N)ncnc32)C1` [Example 77, (E)-1-(3-(4-amino-3-((2-(azetidin-1-yl)-4,6-difluorobenzo[d]oxazol-5-yl)ethynyl)-1H-pyrazolo[3,4-d]pyrimidin-1-yl)azetidin-1-yl)-4-(dimethylamino)but-2-en-1-one], the IC50 was 0.5 to 5 nM against FGFR2 N549K; 5 to 50 nM against FGFR3 N540K; no more than 0.5 nM against FGFR2 V564F; 0.5 to 5 nM against FGFR3 V555M; 0.5 to 5 nM at FGFR2 V564L; 5 to 50 nM against FGFR2 K659M.
`C=CC(=O)N1CC[C@H](n2cc(C#Cc3c(F)cc4sc(C)nc4c3F)c3c(N)ncnc32)C1` [Example 75, (S)-1-(3-(4-amino-5-((4,6-difluoro-2-methylbenzo[d]thiazol-5-yl)ethynyl)-7H-pyrrolo[2,3-d]pyrimidin-7-yl)pyrrolidin-1-yl)prop-2-en-1-one]: the IC50 against FGFR2 V564I is no more than 0.5 nM; on FGFR2 V564F, 0.5 to 5 nM; against FGFR3 V555M, 0.5 to 5 nM; on FGFR2 K659M it was 0.5 to 5 nM.
For the compound `C=CC(=O)N1CC[C@H](n2cc(C#Cc3ccc4sc(C)nc4c3)c3c(N)ncnc32)C1` [Example 42, (S)-1-(3-(4-amino-5-((2-methylbenzo[d]thiazol-5-yl)ethynyl)-7H-pyrrolo[2,3-d]pyrimidin-7-yl)pyrrolidin-1-yl)prop-2-en-1-one], the IC50 on FGFR2 N549K is 0.5 to 5 nM; against FGFR2 V564F, no more than 0.5 nM; against FGFR3 V555M, 5 to 50 nM; on FGFR2 V564L it was 0.5 to 5 nM; against FGFR2 K659M, 5 to 50 nM.
`C=CC(=O)N1C[C@@H](n2nc(C#Cc3c(F)cc4sc(C5CC5)nc4c3F)c3c(N)ncnc32)C[C@@H]1COC` [Example 68, 1-((2R,4S)-4-(4-amino-3-((2-cyclopropyl-4,6-difluoro-benzo[d]thiazol-5-yl)ethynyl)-1H-pyrazolo[3,4-d]pyrimidin-1-yl)-2-(methoxy-methyl)pyrrolidin-1-yl) prop-2-en-1-one]: the IC50 on FGFR2 N549K is no more than 0.5 nM; against FGFR3 N540K, 0.5 to 5 nM; against FGFR2 V564F, no more than 0.5 nM; against FGFR3 V555M it was no more than 0.5 nM; against FGFR2 V564L it was no more than 0.5 nM; against FGFR2 K659M, 0.5 to 5 nM.
With `C=CC(=O)N1C[C@@H](n2nc(C#Cc3c(F)cc4sc(N5CCC5)nc4c3F)c3c(N)ncnc32)C[C@@H]1COC` [Example 69, 1-((2R,4S)-4-(4-amino-3-((2-(azetidin-1-yl)-4,6-difluorobenzo[d]thiazol-5-yl)ethynyl)-1H-pyrazolo[3,4-d]pyrimidin-1-yl)-2-(methoxy-methyl)pyrrolidin-1-yl)prop-2-en-1-one], the IC50 at FGFR2 N549K was 0.5 to 5 nM; at FGFR2 V564F, no more than 0.5 nM; on FGFR3 V555M, no more than 0.5 nM; on FGFR2 V564L, 0.5 to 5 nM; against FGFR2 K659M it was 5 to 50 nM.
Turning to `CN(C)C/C=C/C(=O)N1CC(n2nc(C#Cc3c(F)cc4sc(C5CC5)nc4c3F)c3c(N)ncnc32)C1` [Example 78, (E)-1-(3-(4-amino-3-((2-cyclopropyl-4,6-difluoro-benzo[d]thiazol-5-yl)ethynyl)-1H-pyrazolo[3,4-d]pyrimidin-1-yl)azetidin-1-yl)-4-(dimethylamino)but-2-en-1-one], the IC50 at FGFR2 N549K was 0.5 to 5 nM; against FGFR3 N540K, 5 to 50 nM; on FGFR2 V564F, no more than 0.5 nM; against FGFR3 V555M it was no more than 0.5 nM; against FGFR2 V564L, 0.5 to 5 nM; on FGFR2 K659M, 5 to 50 nM.
On to `C=CC(=O)N1CC[C@H](n2nc(C#Cc3c(F)cc4oc(NC)nc4c3F)c3c(N)ncnc32)C1` [Example 67, (S)-1-(3-(4-amino-3-((4,6-difluoro-2-(methylamino)benzo[d]oxazol-5-yl)ethynyl)-1H-pyrazolo[3,4-d]pyrimidin-1-yl)pyrrolidin-1-yl)prop-2-en-1-one], for which the IC50 lay in the range of 5 to 50 nM at FGFR3 N540K, 0.5 to 5 nM against FGFR2 V564F and 0.5 to 5 nM against FGFR3 V555M.
For `C=CC(=O)N1CC[C@H](n2cc(C#Cc3ccc4oc(C5CC5)nc4c3)c3c(N)ncnc32)C1` [Example 1, (S)-1-(3-(4-amino-5-((2-cyclopropylbenzo[d]oxazol-5-yl)ethynyl)-7H-pyrrolo[2,3-d]pyrimidin-7-yl)pyrrolidin-1-yl)prop-2-en-1-one], the IC50 at FGFR2 V564I is no more than 0.5 nM; at FGFR2 N549K it was 0.5 to 5 nM; against FGFR3 N540K, 0.5 to 5 nM; against FGFR2 V564F, 0.5 to 5 nM; against FGFR3 V555M it was 0.5 to 5 nM; against FGFR2 V564L, 0.5 to 5 nM. This compound also yielded an IC50 on FGFR2 K659M of 0.5 to 5 nM.
As to `C=CC(=O)N1CC[C@H](n2nc(C#Cc3c(F)cc4oc(N5CCC5)nc4c3F)c3c(N)ncnc32)C1` [Example 74, (S)-1-(3-(4-amino-3-((2-(azetidin-1-yl)-4.6-difluoro-benzo[d]oxazol-5-yl)ethynyl)-1H-pyrazolo[3,4-d]pyrimidin-1-yl)pyrrolidin-1-yl)prop-2-en-1-one], the IC50 at FGFR2 V564I is no more than 0.5 nM; on FGFR2 N549K, 0.5 to 5 nM; on FGFR3 N540K, 0.5 to 5 nM; against FGFR2 V564F it was no more than 0.5 nM; at FGFR3 V555M, no more than 0.5 nM; at FGFR2 V564L it was 0.5 to 5 nM. For the same compound, the IC50 at FGFR2 K659M lay in the range of 5 to 50 nM.

What is called IC50 is the point on the concentration scale where inhibition reaches its midpoint. Read a high IC50 as weaker potency in that assay.

The values above are taken from patent US20230303575A1, “FGFR AND MUTATION INHIBITOR THEREOF, PREPARATION METHOD THEREFOR AND USE THEREOF” (Abbisko Therapeutics Co., Ltd., priority 2020, published 2023).
